Laboratory results reported in patent US9119396B2, “Method for promoting plant growth” (SUMITOMO CHEMICAL COMPANY, LIMITED, priority 2011, dated 2015).

Experiments:
Assay type in all cases: in vivo
[1] = tested on: Corn (cultivar: Kuromochi); test: Test Example 3: reduction of low-temperature stress by treatment of corn seeds; settings: corn seed treatment, low-temperature stress 2.5±1° C. 4 days, then 4 days at 27° C.
Protocol: Evaluation Test for Reduction of Low-Temperature Stress by Treatment of Corn Seeds Corn (cultivar: Kuromochi) A blank slurry solution containing 10% (V/V) color coat red (Becker Underwood, Inc.), 10% (V/V) CF-Clear (Becker Underwood, Inc.) and 1.66% Maxim 4FS (Syngenta) was prepared. A slurry solution was prepared by dissolving the present compound 1 in the blank slurry solution such that 0.5 g, 5 g or 50 g of the compound is applied to each 100 kg of corn seeds. In a 50-ml centrifuge tube (manufactured by BD Japan), 0.35 ml of the slurry solution was placed for each 14.4 g of corn seeds and stirred until the solution was dried, thereby coating the seeds. In addition, seeds were coated with the blank slurry solution and used as seeds for a non-treated group. One of the treated corn seeds was sown in culture soil (AISAI) in each pot (55 mm in diameter×58 mm in height) and cultivated for 10 days under the conditions of a temperature of 27° C., an illuminance of 5,000 lux, and a day length of 16 hours. The grown seedlings were used for the test. The pots at 10 days after the sowing were placed into an artificial weather control room (VHT-2-15P-NC2-S, manufactured by Nippon Medical & Chemical Instruments Co., Ltd) and cultivated for 4 days under the following conditions: • temperature: 2.5±1° C., day length: 16 hours, and illuminance: 5,000 lux. <Evaluation Method> After the low-temperature stress treatment, the plants were cultivated for 4 days under the conditions of a temperature of 27° C., an illuminance of 5,000 lux, and a day length of 16 hours. Then, the fresh weight of the overground part of the plants was measured. The experiment was performed in five replications for each treatment condition and the average weight per individual was calculated. As a result, the fresh weight of the overground part of plants in the treated group of applying 0.5 g, 5 g or 50 g of the present compound 1 to each 100 kg of seeds was much heavier than that in the non-treated group.

[2] = tested on: Rice (cultivar: Nipponbare); test: Test Example 5: reduction of low-temperature stress by treatment of rice seeds; settings: rice seed treatment, low-temperature stress 4° C. 5 days, then 12 days at 25° C.
Protocol: Evaluation Test for Reduction of Low-Temperature Stress by Treatment of Rice Seeds Rice (cultivar: Nipponbare) A blank slurry solution containing 5% (V/V) color coat red (Becker Underwood, Inc.), 5% (V/V) CF-Clear (Becker Underwood, Inc.) and 1% Maxim XL (Syngenta) was prepared. A slurry solution was prepared by dissolving the present compound 1 in the blank slurry solution such that 5 g or 50 g of the compound is applied to each 100 kg of rice seeds. In a 15-ml centrifuge tube (manufactured by AGC TECHNO GLASS CO., LTD.), 0.1 ml of the slurry solution was placed for each 3 g of rice seeds and stirred until the solution was dried, thereby coating the seeds. In addition, seeds were coated with the blank slurry solution and used as seeds for a non-treated group. A filter paper was placed on the bottoms of the holes of a plug tray having 406 holes, and the rice seeds treated above were sown on the filter paper. […] Twelve (12) days after the treatment, the fresh weight of the overground part of each plant was measured. The experiment was performed in four replications in each treated group and the average value was calculated. […]

[3] = tested on: Rice (cultivar: Nipponbare); test: Test Example 6: reduction of drought stress by immersion treatment of rice; settings: hydroponic solution 10 ppm for 14 days, drought stress 2 days, then 14 days cultivation
Protocol: Evaluation Test for Reduction of Drought Stress by Immersion Treatment of Rice Rice (cultivar: Nipponbare) A necessary amount of rice seeds was immersed in an aqueous solution of 1,000 ppm of Benlate, and incubated at 30° C. overnight under dark conditions. The aqueous solution of Benlate was replaced with distilled water, and the seeds were further incubated at 30° C. overnight under dark conditions. A filter paper was placed on the holes of a plug tray having 406 holes, and the rice seeds treated as above were sown on the filter paper. To the rice seeds were added a kimura B solution for hydroponics (see Plant Science 119: 39-47 (1996)) at ½ concentration and a 1/10,000 volume of a DMSO solution containing the present compound 1 at 100,000 ppm, and cultivated for 14 days under the conditions of a temperature of 28° C. in daytime/23° C. in night, a humidity of 60%, an illuminance of 8500 lux, and a day length of 12 hours. […] Fourteen (14) days after the treatment, the fresh weight of the overground parts of five test plants in each treated group was measured. The experiment was performed in three replications in each treated group and the average value was calculated. […]

Measured: fresh weight of the overground part of plants vs non-treated group

COC(=O)c1cc2cc(C(F)(F)F)ccc2s1 [compound 1]
much heavier: [1]; 0.5 g per 100 kg of seeds | [1]; 5 g per 100 kg of seeds | [1]; 50 g per 100 kg of seeds | [2]; 5 g per 100 kg of seeds | [2]; 50 g per 100 kg of seeds | [3]
